# Patent US10512644B2, “Oligomer-opioid agonist conjugates” (Nektar Therapeutics, priority 2007, dated 2019)
# Where two headings read alike, the source gives them in different places.
# Experiments:
# mu opioid receptor [1] = biological target: T1, mu opioid receptor (Homo sapiens (Human), UniProt P35372); format: binding; conditions: mean IC50 ratio, ↓ = lower affinity
# Method: Using conventional in vitro mu opioid receptor binding affinity assays, IC50 values were determined for each of alpha-6-mPEGn-O-hydrocodonol compounds.
# mu opioid receptor [2] = biological target: T1, mu opioid receptor; test: cell-based; format: binding; conditions: whole CHO cells, 0.5 nM 3H Naloxone; read-out: Ki at MU Receptors
# Method: (§1) Using conventional receptor binding assay techniques, several molecules were assayed to determine binding activity at kappa, mu and delta opioid subtypes of opioid receptors.
# (§2) Cells were plated in 24 well plates at a density of 0.2-0.3*10^6 cells/well and washed with assay buffer containing 50 mM Tris.HCl and 5 mM MgCl2 (pH 7.4). Competition binding assays were conducted in whole cells incubated with increasing concentrations of test compounds in the presence of appropriate concentration of radioligand. 0.5 nM ^3H Naloxone, 0.5 nM ^3H Diprenorphine and 0.5 nM ^3H DPDPE were used as the competing radioligands for mu, kappa and delta receptors respectively. Incubations were carried out for two hours at room temperature using triplicate wells at each concentration. At the end of the incubation, cells were washed with 50 mM Tris HCl (pH 8.0), solubilized with NaOH and bound radioactivity was measured using a scintillation counter.
# (§3) Specific binding is determined by subtraction of the cpm bound in the presence of 50-100× excess of cold ligand. Binding data assays were analyzed using GraphPad Prism 4.0 and IC50 is generated by non-linear regression from dose-response curves.
# [3] = biological target: T2, recombinant human kappa opioid receptor (Homo sapiens (Human), UniProt P41145); test: cell-based; format: binding; conditions: whole CHO cells, 0.5 nM 3H Diprenorphine; read-out: Ki at KAPPA receptors
# Method: as §1, §2, §3
# [4] = biological target: recombinant human delta opioid receptor (Homo sapiens (Human), UniProt P41143); test: Radioligand competition binding in whole CHO cells, delta opioid receptor (3H DPDPE)
# Sequence of recombinant human delta opioid receptor (P41143 whole entry, looked up): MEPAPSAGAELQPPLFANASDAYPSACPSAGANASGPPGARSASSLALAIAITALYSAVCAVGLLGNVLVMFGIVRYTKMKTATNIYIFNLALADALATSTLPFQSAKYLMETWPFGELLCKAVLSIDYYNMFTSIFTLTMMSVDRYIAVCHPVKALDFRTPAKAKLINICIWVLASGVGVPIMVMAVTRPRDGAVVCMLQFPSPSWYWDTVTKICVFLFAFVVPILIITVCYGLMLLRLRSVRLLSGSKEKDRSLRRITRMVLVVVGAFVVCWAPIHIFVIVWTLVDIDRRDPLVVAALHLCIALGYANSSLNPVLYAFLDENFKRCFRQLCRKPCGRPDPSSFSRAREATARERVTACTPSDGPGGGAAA
# Method: as §1, §2, §3
# [5] = biological target: T2, recombinant human kappa opioid receptor; test: biochemical; conditions: agonist mode; read-out: Kappa Agonist EC50, GTP-γS Binding
# Method: (§4) The reaction is initiated by 0.3 nM [^35S]GTPγS for an additional 30 minutes incubation period. Test compound-induced increase of [^35S]GTPγS binding by 50 percent or more (≥50%) relative to the receptor subtype-specific agonist response indicates possible opiate receptor agonist activity.
# mu opioid receptor [6] = biological target: T1, mu opioid receptor; test: biochemical; conditions: antagonist mode vs 1 μM DAMGO; read-out: Mu Antagonist IC50, GTP-γS Binding
# Method: as §4
# in vivo = conditions: rat, iv, 25 mg/kg
# [7] = tested on: CD-1 male mice (phenylquinone-induced writhing, visceral pain); test: Phenylquinone writhing analgesic assay; format: in vivo; conditions: mPEGn-O-HydroxyCodone series, writhing 35-45 min after pretreatment
# Method: Mice were treated according to standard protocols. Mice were given a single “pretreatment” dose of a compound lacking covalent attachment of a water-soluble, non-peptidic oligomer (i.e., non-PEG oligomer-modified parent molecule), a corresponding version comprising the compound covalently attached to a water-soluble, non-peptidic oligomer (i.e., the conjugate), or control solution (IV, SC, IP or orally) thirty minutes prior to the administration of the phenylquinone (PQ) solution. Each animal was given an IP injection of an irritant (phenylquinone, PQ) that induces “writhing” which may include: contractions of the abdomen, twisting and turning of the trunk, arching of the back, and the extension of the hindlimbs. Each animal was given an IP injection of PQ (1 mg/kg PQ, 0.1 mL/10 g bodyweight). After the injection, the animals were returned to their observation enclosure and their behavior was observed. Contractions were counted between 35 and 45 minutes after the “pretreatment”. The animals were used once. Each tested article was dosed at a range between 0.1 and 100 mg/kg (n=5-10 animals/dose).
# [8] = Plasma pharmacokinetics after intravenous dosing in male Sprague-Dawley rats; conditions: IV 1 mg/kg, PEGylated hydroxycodone
# [9] = biological target: cloned human mu opioid receptor (Homo sapiens (Human), UniProt P35372); format: cell-based; conditions: inhibition of cAMP formation, 3 μM forskolin, whole cells
# Method: The efficacy of the various PEG-opioid conjugates was measured by their ability to inhibit cAMP formation following receptor activation. Studies were conducted in CHO cells heterologously expressing the cloned human mu, kappa or delta opioid receptors. cAMP was measured using a cAMP HiRange homogenous time-resolved fluorescence assay (HTRF Assay), that is based on a competitive immunoassay principle (Cisbio, Cat.#62AM6PEC).
# Briefly, suspensions of cells expressing either the mu, kappa or delta opioid receptors were prepared in buffer containing 0.5 mM isobutyl-methyl xanthine (IBMX). […] EC50 values were calculated for each compound from a sigmoidal dose-response plot of concentrations versus maximum response. To determine if the compounds behaved as full or partial agonists in the system, the maximal response at the highest tested concentrations of compounds were compared to that produced by a known full agonist.
compound,measurement,setting,value
COCCOCCOCCOCCOCCOCCO[C@H]1CC[C@H]2[C@H]3Cc4ccc(OC)c5c4[C@@]2(CCN3C)[C@H]1O5 [α-6-mPEG6-O-Hydrocodonol],Fold Change vs. Hydrocodone,mu opioid receptor [1],11.12 ↓
COCCOCCOCCO[C@H]1CC[C@H]2[C@H]3Cc4ccc(OC)c5c4[C@@]2(CCN3C)[C@H]1O5 [α-6-mPEG3-O-Hydrocodonol],Fold Change vs. Hydrocodone,mu opioid receptor [1],5.87 ↓
COCCOCCOCCOCCOCCOCCOCCOCCOCCO[C@H]1CC[C@H]2[C@H]3Cc4ccc(OC)c5c4[C@@]2(CCN3C)[C@H]1O5 [α-6-mPEG9-O-Hydrocodonol],Fold Change vs. Hydrocodone,mu opioid receptor [1],16.30 ↓
"COCCOCCOCCO[C@H]1CC[C@@]2(O)[C@H]3Cc4ccc(O)c5c4[C@@]2(CCN3CC2CCC2)[C@H]1O5 [6-O-mPEG3-Nalbuphine, 6-O-mPEG3-nalbuphine]",Ki,mu opioid receptor [2],27.4 nM
same,Ki,[3],218 nM
same,Ki,[4],163 nM
same,EC50,[5],26.8 nM
same,IC50,mu opioid receptor [6],398 nM
same,Kp at 1 h,in vivo,0.23
COCCOCCOCCOCCOCCOCCOCCOCCO[C@H]1CC[C@H]2[C@H]3Cc4ccc(OC)c5c4[C@@]2(CCN3C)[C@H]1O5 [α-6-mPEG8-O-Hydrocodonol],Fold Change vs. Hydrocodone,mu opioid receptor [1],40.10 ↓
COCCOCCOCCOCCO[C@H]1CC[C@H]2[C@H]3Cc4ccc(OC)c5c4[C@@]2(CCN3C)[C@H]1O5 [α-6-mPEG4-O-Hydrocodonol],Fold Change vs. Hydrocodone,mu opioid receptor [1],7.14 ↓
COCCOCCOCCOCCOCCO[C@H]1CC[C@H]2[C@H]3Cc4ccc(OC)c5c4[C@@]2(CCN3C)[C@H]1O5 [α-6-mPEG5-O-Hydrocodonol],Fold Change vs. Hydrocodone,mu opioid receptor [1],6.20 ↓
"COCCOCCOCCOCCO[C@H]1CC[C@@]2(O)[C@H]3Cc4ccc(O)c5c4[C@@]2(CCN3CC2CCC2)[C@H]1O5 [6-O-mPEG4-Nalbuphine, 6-O-mPEG4-nalbuphine]",Ki,mu opioid receptor [2],17.5 nM
same,Ki,[4],149 nM
"COc1ccc2c3c1O[C@H]1C(=O)CC[C@@]4(O)[C@@H](C2)N(C)CC[C@]314 [Oxycodone, oxycodone, reference compound]",ED50,"[7]; Mus musculus, read-out: ED50",0.619 mg/kg
COCCOCCO[C@H]1CC[C@H]2[C@H]3Cc4ccc(OC)c5c4[C@@]2(CCN3C)[C@H]1O5 [α-6-mPEG2-O-Hydrocodonol],Fold Change vs. Hydrocodone,mu opioid receptor [1],5.84 ↓
"COCCOCCOCCOCCOCCOCCO[C@H]1CC[C@@]2(O)[C@H]3Cc4ccc(OC)c5c4[C@@]2(CCN3C)[C@H]1O5 [α-6-mPEG6-O-Hydroxycodone, α-6-mPEG6-O-hydroxycodone]",mean exposure (AUC) as compared to oxycodone,[8],comparable mean exposure
"COCCOCCO[C@H]1CC[C@@]2(O)[C@H]3Cc4ccc(OC)c5c4[C@@]2(CCN3C)[C@H]1O5 [α-6-mPEG2-O-Hydroxycodone, α-6-mPEG2-O-hydroxycodone]",mean exposure (AUC) as compared to oxycodone,[8],slightly lower mean exposure
COCCO[C@H]1CC[C@H]2[C@H]3Cc4ccc(OC)c5c4[C@@]2(CCN3C)[C@H]1O5 [α-6-mPEG1-O-Hydrocodonol],Fold Change vs. Hydrocodone,mu opioid receptor [1],6.03 ↓
COCCOCCOCCOCCOCCOCCOCCO[C@H]1CC[C@H]2[C@H]3Cc4ccc(OC)c5c4[C@@]2(CCN3C)[C@H]1O5 [α-6-mPEG7-O-Hydrocodonol],Fold Change vs. Hydrocodone,mu opioid receptor [1],26.32 ↓
"COCCOCCOCCOCCO[C@H]1CC[C@@]2(O)[C@H]3Cc4ccc(OC)c5c4[C@@]2(CCN3C)[C@H]1O5 [α-6-mPEG4-O-Hydroxycodone, α-6-mPEG4-O-hydroxycodone]",ED50,[7],17.31 mg/kg
same,mean exposure (AUC) as compared to oxycodone,[8],slightly lower mean exposure
α-6-hydroxycodone,EC50,[9],3160 nM
"COc1ccc2c3c1O[C@H]1[C@@H](O)CC[C@H]4[C@@H](C2)N(C)CC[C@@]341 [α-6-Hydrocodonol, 6-hydrocodonol, reference compound]",Fold Change vs. Hydrocodone,mu opioid receptor [1],7.50 ↓
"COCCO[C@H]1CC[C@@]2(O)[C@H]3Cc4ccc(OC)c5c4[C@@]2(CCN3C)[C@H]1O5 [α-6-mPEG1-O-Hydroxycodone, α-6-mPEG1-O-hydroxycodone]",ED50,[7],6.064 mg/kg
same,mean exposure (AUC) as compared to oxycodone,[8],slightly lower mean exposure
"COCCOCCOCCOCCOCCOCCOCCO[C@H]1CC[C@@]2(O)[C@H]3Cc4ccc(OC)c5c4[C@@]2(CCN3C)[C@H]1O5 [α-6-mPEG7-O-Hydroxycodone, α-6-mPEG7-O-hydroxycodone]",mean exposure (AUC) as compared to oxycodone,[8],higher mean exposure
